“And” between values parts separate entries of the source, which are not always exact repeats. Equal entries are not always repeated. Where two headings read alike, the source gives them in different places.
Assays:
[1] = Stability in human liver microsomes; type: in vitro ADME; conditions: 0.5 mg/mL microsomal protein, 1.00 μM compound, NADPH; for half-life at 1 μM: human, liver microsomes, pH 7.4, Human, read-out: Half life T1/2, human liver microsomes
Method: (§1) Test Example 3: Test of Stability of Compounds in Liver Microsome
(§2) Test purpose: To determine the stability of some of the compounds of the present disclosure in mouse, dog and human liver microsomes by LC-MS/MS method.
(§3) Test materials: The test drugs were in-house prepared example compounds of the present disclosure; the positive reference compound SNDX-5613 was prepared by the method of Example 253 in patent WO2017214367; the control compound 1 was prepared by the method of Example 64 in WO2017214367; liver microsomes were purchased from CORNING.
(§4) The total volume of each incubation system was approximately 45 μL, and the medium was 100 mM phosphate buffer (PBS, pH 7.4), including liver microsomal protein at a final concentration of 0.5 mg/mL, 1.00 μM compound and 2.00 mM NADPH, and the organic phase content was <1%. Incubation was performed in a 37° C. incubator, and 135 μL of ice-cold acetonitrile was added after 0, 5, 15, 30 and 60 min of reaction to terminate the reaction. The positive control group was incubated with 1.00 μM Ketanserin, 0.5 mg/mL liver microsomal protein and 2.00 mM NADPH in a 37° C. incubator for 0, 5, 15, 30 and 60 min respectively, and then 135 μL of ice-cold acetonitrile was added to terminate the reaction. The 96-well plates were shaken at 600 rpm for 10 min and then centrifuged at 4700 rpm at 4° C. for 15 min. 80 μL of supernatant was mixed with 320 μL of pure water, and the remaining amount of the compound was detected by LC-MS/MS method. The in vitro half life (T½) and intrinsic clearance (CLint) were calculated according to the following formula:
(§5) Intrinsic clearance (Clint)=(0.693/T1/2)×(1/liver microsome concentration)×conversion factor. k is the linear regression slope of the remaining percentage of the ln compound-incubation time.

[2] = Stability in mouse liver microsomes; type: in vitro ADME; conditions: 1.00 μM compound, NADPH; for half-life at 1 μM: liver microsomes, pH 7.4, 0.5 mg/mL microsomal protein, read-out: Half life T1/2, mouse liver microsomes
Method: as §1, §2, §3, §4, §5

[3] = tested on: MOLM-13; experiment: Cell proliferation inhibition (CellTiter-Glo), MOLM-13; type: cell-based; conditions: MOLM-13 cells
Method: Test Example 2: Test of the Inhibitory Ability of Menin-MLL Interaction Inhibitors on Cell Proliferation
The inhibitory ability of the compounds of the present disclosure on the proliferation of tumor cell lines (including cell lines containing MLL fusion protein such as MV4-11, MOLM-13, THP-1 and NOMO-1, control cell lines without MLL fusion protein such as HL-60, K562 and MOLM-16, and cell lines containing NPM1 mutation such as OCI-AML3) was evaluated by using the cell viability analysis method. The cells were plated in 96-well plates at a certain concentration (e.g., 5,000-20,000 cells/well), and then an equal volume of culture medium containing 2 times the final concentration of the test compound (the final concentration ranging 10 from 1 nM to 10 μM) was added. The plates were placed in an incubator and cultured at 37° C. and 5% CO2 for 72-168 h. Before the test, an equal volume of CellTiter-Glo® Luminescent reagent was added, and the plate was incubated at room temperature for 10 min before detection using an ELISA reader (BMG LABTECH). The data were analyzed using GraphPad Prism software to obtain the IC50 value and compound fitting curve. The control compound 1 was prepared by referring to the method of Example 64 in WO2017214367.

[4] = tested on: OCI-AML3; experiment: Cell proliferation inhibition (CellTiter-Glo), OCI-AML3 (NPM1 mutation); type: cell-based; conditions: OCI-AML3 cells
Procedure, shortened: (§6)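 CellTiter-Glo luminescence read-out (10 min RT) after 72-168 h culture at 37° C, 5% CO2; cells plated 5,000-20,000/well; compound final 1 nM-10 μM; IC50 from curve fit.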

[5] = Stability in dog liver microsomes; type: in vitro ADME; conditions: 0.5 mg/mL microsomal protein, 1.00 μM compound, NADPH; for half-life at 1 μM: dog, liver microsomes, pH 7.4, Dog, read-out: Half life T1/2, dog liver microsomes
Method: as §1, §2, §3, §4, §5

[6] = tested on: MV4-11; experiment: Cell proliferation inhibition (CellTiter-Glo), MV4-11; type: cell-based; conditions: MV4-11 cells
Procedure, shortened: as §6

[7] = target: Menin/MLL-4-43 peptide interaction (Homo sapiens (Human), UniProt O00255); experiment: Menin-MLL interaction inhibitory activity assay (fluorescence polarization competition); type: binding; conditions: FITC-MLL4-43-peptide, Menin recombinant protein
Procedure, shortened: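 Menin (8 nM solution) was preincubated 15 min with compound, then FITC-MLL4-43 peptide (10 nM solution) was added and shaken for 60 min at 25 °C. The buffer was 50 mM Tris pH 7.5, 50 mM NaCl, 1 mM DTT. IC50 was derived from fluorescence polarization read at 485/520 nm.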

[8] = target: hERG potassium ion channel (Homo sapiens (Human), UniProt Q12809); experiment: hERG potassium channel effect test (manual patch clamp, HEK293 cells overexpressing hERG); type: cell-based
Method: Test Example 6: hERG Potassium Channel Effect Test
The hERG inhibition test was performed on some of the example compounds of the present disclosure using the manual electrophysiological patch clamp method. The cell line was derived from HEK293 cells that overexpressed hERG potassium ion channels. The specific experimental protocol was developed by PharmaCore Labs with reference to literature published in peer-reviewed journals and was performed by PharmaCore Labs in accordance with its standard experimental operating procedures. The highest test concentration was 30 μM.

[9] = Pharmacokinetics test in mouse; type: in vivo, ICR mice; conditions: mice, p.o. 10 mg/kg
Description: Test Example 4. In Vivo Pharmacokinetic Study
Test purpose: To determine the pharmacokinetic properties of some of the example compounds of the present disclosure in mice, rats and dogs after single intravenous injection (i.v.) and oral gavage (i.g.) administration by LC-MS/MS method.
Research methods: An appropriate amount of compound was weighed and prepared into a transparent clear solution of a certain concentration using 0.9% sodium chloride injection and 1.5 equivalents of 1M HCl aqueous solution based on the molar number of the compound. After SPF male ICR mice, SPF male SD rats, and male beagle dogs were fasted overnight, the test compound solution was given by intravenous injection and oral gavage at the corresponding dose. Anticoagulated whole blood of the test animals was collected at 5 min, 15 min, 30 min, 1 h, 2 h, 4 h, 8 h, and 24 h after administration, and plasma was separated. Plasma samples at each time point were detected by LC-MS/MS, and the plasma concentration of the compound was determined by the standard curve correction method. Phoenix WinNonlin 5.2 non-compartmental model was used to calculate the pharmacokinetic parameters of terminal elimination half-life (t½), blood peak concentration (Cmax), area under the concentration-time curve (AUC), clearance (CL), and bioavailability (F %), which was directly obtained from the serum concentration results. Blood drug concentration and pharmacokinetic parameters are expressed as mean±standard deviation (X±SD). The specific test protocols for each species are as follows.
Pharmacokinetics Test in Mouse
Test animals: SPF male ICR mice, weighing 25-30 g, 12 mice/compound, purchased from Chengdu Dossy Experimental Animal Co., Ltd.
Test design: On the day of the test, ICR mice were randomly divided into groups according to body weight, fasted but with free water for 12-14 h one day before administration, and fed 2 h after administration.
Preparation of test compound solution: The concentration of the test compound for oral gavage was 1 mg/mL. An appropriate amount of compound was weighed and prepared into a 1 mg/mL transparent clear solution using 0.9% sodium chloride injection and 1.5 equivalents of 1M HCl aqueous solution. The concentration of the test compound for intravenous injection was 0.2 mg/mL. The 1 mg/mL transparent clear solution was diluted to a concentration of 0.2 mg/mL using 0.9% sodium chloride injection. The volume of 1 M HCl solution added was calculated as: volume of 1 M HCl solution added […]=weighed amount of compound (mg)/molecular weight×1.5×1000. The amount added during preparation must not exceed the calculated value.
The test substance was administered as follows: intravenous injection: 1 mg/kg of dose, 5 mL/kg of volume, 6 mice; oral gavage: 10 mg/kg of dose, 10 mL/kg of volume, 6 mice.
Sample collection: Blood (40-50 μl) was collected in anticoagulant tubes sprayed with EDTA-K2 through the orbital venous plexus at 5 min, 15 min, 30 min, 1 h, 2 h, 4 h, 8 h, and 24 h after administration, and centrifuged at 10,000 rpm for 20 min within 1 h (the blood was saved on wet ice before and after centrifugation). The supernatant, which was plasma, was collected and frozen in a refrigerator at −20° C. or below for LC-MS/MS analysis of Full PK of male ICR mice (2 mice per group, 4 blood collection time points per mouse, crossover).

[10] = male, ICR, mouse, plasma, po, 10 mg/kg

Sequence of Menin/MLL-4-43 peptide interaction (O00255 whole entry, species assumed): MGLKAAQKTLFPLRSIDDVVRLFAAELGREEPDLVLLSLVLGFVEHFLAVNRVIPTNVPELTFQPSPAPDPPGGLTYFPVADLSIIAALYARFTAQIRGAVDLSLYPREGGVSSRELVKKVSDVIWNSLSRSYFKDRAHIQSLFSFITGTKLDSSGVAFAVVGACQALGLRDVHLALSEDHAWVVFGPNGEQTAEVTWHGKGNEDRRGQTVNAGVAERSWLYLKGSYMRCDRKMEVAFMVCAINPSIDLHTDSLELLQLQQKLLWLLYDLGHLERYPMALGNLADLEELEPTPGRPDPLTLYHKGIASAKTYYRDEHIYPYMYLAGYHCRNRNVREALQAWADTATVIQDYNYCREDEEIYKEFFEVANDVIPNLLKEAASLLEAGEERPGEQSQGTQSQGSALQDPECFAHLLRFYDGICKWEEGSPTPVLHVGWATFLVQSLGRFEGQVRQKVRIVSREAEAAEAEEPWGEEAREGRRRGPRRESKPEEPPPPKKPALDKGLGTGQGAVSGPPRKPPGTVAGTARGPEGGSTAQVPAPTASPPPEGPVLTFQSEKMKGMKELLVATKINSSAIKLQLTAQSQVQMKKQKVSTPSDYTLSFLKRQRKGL
Sequence of hERG potassium ion channel (Q12809 whole entry): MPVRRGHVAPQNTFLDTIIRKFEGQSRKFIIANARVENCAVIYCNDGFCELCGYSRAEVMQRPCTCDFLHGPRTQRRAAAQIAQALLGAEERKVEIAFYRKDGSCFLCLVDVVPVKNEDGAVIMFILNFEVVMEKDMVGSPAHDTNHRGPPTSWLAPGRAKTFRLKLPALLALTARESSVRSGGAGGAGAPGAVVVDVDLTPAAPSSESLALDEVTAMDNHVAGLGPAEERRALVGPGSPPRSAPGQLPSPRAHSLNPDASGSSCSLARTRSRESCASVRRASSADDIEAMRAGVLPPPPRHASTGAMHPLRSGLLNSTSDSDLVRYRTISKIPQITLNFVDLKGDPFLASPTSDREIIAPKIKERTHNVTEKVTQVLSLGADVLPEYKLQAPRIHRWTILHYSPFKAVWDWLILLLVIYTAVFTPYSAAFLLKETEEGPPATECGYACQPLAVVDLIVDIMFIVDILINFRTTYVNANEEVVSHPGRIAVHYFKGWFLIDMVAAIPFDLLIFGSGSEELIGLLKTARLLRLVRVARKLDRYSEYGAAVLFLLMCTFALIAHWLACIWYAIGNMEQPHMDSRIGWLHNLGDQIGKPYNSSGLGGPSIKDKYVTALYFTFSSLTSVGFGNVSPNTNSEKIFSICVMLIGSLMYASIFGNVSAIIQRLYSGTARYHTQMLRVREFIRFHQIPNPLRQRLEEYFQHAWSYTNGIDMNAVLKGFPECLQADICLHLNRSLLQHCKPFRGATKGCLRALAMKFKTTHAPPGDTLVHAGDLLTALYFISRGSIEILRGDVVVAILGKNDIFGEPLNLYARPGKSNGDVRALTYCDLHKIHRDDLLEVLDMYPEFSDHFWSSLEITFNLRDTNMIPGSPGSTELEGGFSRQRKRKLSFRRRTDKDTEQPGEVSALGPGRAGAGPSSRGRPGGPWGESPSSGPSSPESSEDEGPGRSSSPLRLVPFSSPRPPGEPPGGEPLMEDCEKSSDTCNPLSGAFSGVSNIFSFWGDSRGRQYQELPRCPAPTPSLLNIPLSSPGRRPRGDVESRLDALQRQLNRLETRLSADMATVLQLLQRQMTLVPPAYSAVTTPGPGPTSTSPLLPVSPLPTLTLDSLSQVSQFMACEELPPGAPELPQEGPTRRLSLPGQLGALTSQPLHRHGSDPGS

| Structure (SMILES) | half-life at 1 μM [1] [h] | half-life at 1 μM [2] [h] | GI50 ([3]; Homo sapiens, MOLM-13, 168 h) [nM] | GI50 ([4]; Homo sapiens, OCI-AML-3, 168 h) [nM] | half-life at 1 μM [5] [h] | GI50 ([6]; Homo sapiens, MV4-11, 72 h) [nM] | IC50 [7] [nM] | GI50 ([3]; 168 h) [nM] | GI50 ([4]; 168 h) [nM] | GI50 ([6]; 72 h) [nM] | also measured |
| --- | --- | --- | --- | --- | --- | --- | --- | --- | --- | --- | --- |
| CCN(C(=O)c1cc(F)ccc1Oc1nncnc1N1CC2(CCN(C[C@H]3CC[C@]4(CC3)CC(C(C)(C)O)C(=O)N4)CC2)C1)C(C)C (single isomer, unassigned) [Example 58-1a] | 0.396 | > 2 | 54.4 | 22.9 | 1.16 | 17.7 | 5.4 | – | – | – | – |
| CCN(C(=O)c1cc(F)ccc1Oc1nncnc1N1CC2(CCN(C[C@H]3CC[C@]4(CC3)CC(C(C)(C)O)C(=O)N4)CC2)C1)C(C)C (single isomer, unassigned) [Example 58-1b] | – | – | – | – | – | – | 5.9 | 56.9 | 30.2 | 18 | Half life T1/2, human liver microsomes ([1]; Human): 0.593 h; Half life T1/2, mouse liver microsomes ([2]; 0.5 mg/mL microsomal protein): >2 h; Half life T1/2, dog liver microsomes ([5]; Dog): 1.14 h |
| CC(C)N(C(=O)c1cc(F)ccc1Oc1nncnc1N1CC2(CCN(C[C@H]3CC[C@]4(CC3)CC(C(C)(C)O)C(=O)N4)CC2)C1)C(C)C (single isomer, unassigned) [Example 59-1b] | 0.479 | 1.65 | – | – | 1.17 | – | 10.3 | 34.3 | 20.1 | 9.5 | – |
| CC(C)N(C(=O)c1cc(F)ccc1Oc1cncnc1N1CC2(CCN(C[C@H]3CC[C@@]4(CCC(=O)N4)CC3)CC2)C1)C(C)C [Example 5] | – | – | 46.5 | 242 | – | 47.8 | 34 | – | – | – | inhibition at 30 μM ([8]; human, HEK293 cells overexpressing hERG potassium ion channels, 30 μm, read-out: Average inhibition rate of hERG current at the highest compound tested concentration): 33.1%; IC50 ([8]; manual patch clamp, highest test concentration 30 μM): > 30000 nM; AUC(0-t) [9, 10]: 7700 ng·h/mL; half-life [9, 10]: 1.37 h; Cmax ([9]; male, ICR, mouse, plasma, po, 10 mg/kg, read-out: Cmax): 2620 ng/mL; AUClast [9]: 8285 ng·h/mL; Cmax [9]: 2535 ng/mL; T1/2 [9]: 1.91 h; F, % ([9]; 1 mg/kg for intravenous injection): 84% and 72% |
| CCN(C(=O)c1cc(F)ccc1Oc1nncnc1N1CC2(CCN(C[C@H]3CC[C@@]4(CCC(=O)N4)CC3)CC2)C1)C(C)C [Example 7] | 1.3 | > 2 | 389 | 323 | 1 | 137 | 62.1 | – | – | – | – |

From patent US20250074910A1, “MENIN INHIBITOR AND USE THEREOF” (HITGEN INC., priority 2021, published 2025)
